Converted amounts (≈) assume the structure as drawn.
Tests used:
[1] = system: Staph.aureus 0119; assay: Minimum Inhibitory Concentration (MIC), broth dilution method; format: cell-based; settings: inoculum size 10^6 /ml; for MIC: Staphylococcus aureus, 0119, Staph.aureus 0119, macrolide resistant clinical isolate (A group)
From the text: (§1) Minimum Inhibitory Concentration (MIC) μg/ml
(§2) *Erythromycin, oleandomycin, 16membered macrolide resistant strains of
(§3) clinical isolates (macrolide resistant Agroup strains) inoculum size
(§4) 10^6 /ml, broth dilution method.

[2] = system: Staph.aureus MS 353AO; assay: as above; format: cell-based; settings: macrolide resistant clinical isolate (A group), inoculum size 10^6 /ml; for MIC: Staphylococcus aureus, MS353AO
From the text: as §1, §2, §3, §4

[3] = system: Staph. aureus 0116; assay: as above; format: cell-based; settings: inoculum size 10^6 /ml; for MIC: Staphylococcus aureus, 0116, Staph. aureus 0116, macrolide resistant clinical isolate (A group)
From the text: as §1, §2, §3, §4

[4] = system: Strept.pyogenes 1022; assay: as above; format: cell-based; settings: inoculum size 10^6 /ml; for MIC: Streptococcus pyogenes, 1022, Strept.pyogenes 1022, macrolide resistant clinical isolate (A group)
From the text: as §1, §2, §3, §4

[5] = system: Staph.aureus 6538P; assay: as above; format: cell-based; settings: Staphylococcus aureus, inoculum size 10^6 /ml
[6] = system: Staph.aureus MS353; assay: as above; format: cell-based; settings: Staphylococcus aureus, inoculum size 10^6 /ml
From the text: as §1, §3, §4

[7] = system: Strept.faecalis 1501; assay: as above; format: cell-based; settings: for MIC: Enterococcus faecalis, 1501, Strept.faecalis 1501, inoculum size 10^6 /ml
[8] = Potency as compared with standard leucomycin
[9] = system: Staph.aureus MS353 C36; assay: Minimum Inhibitory Concentration (MIC), broth dilution method; format: cell-based; settings: Staphylococcus aureus, MS353C36, Staph.aureus MS353 C36, inoculum size 10^6 /ml
From the text: as §1, §3, §4

| Structure (SMILES) | Minimum Inhibitory Concentration (MIC) ([1]; Staph.aureus 0119, macrolide resistant clinical isolate (A group)) [µg/mL] | MIC [1] [µg/mL] | MIC [2] [µg/mL] | Minimum Inhibitory Concentration (MIC) [2] [µg/mL] | Minimum Inhibitory Concentration (MIC) ([3]; Staph. aureus 0116, macrolide resistant clinical isolate (A group)) [µg/mL] | MIC [3] [µg/mL] | Minimum Inhibitory Concentration (MIC) ([4]; Strept.pyogenes 1022, macrolide resistant clinical isolate (A group)) [µg/mL] | MIC [4] [µg/mL] | MIC [5] [µg/mL] | MIC [6] [µg/mL] | MIC [7] [µg/mL] | Minimum Inhibitory Concentration (MIC) ([7]; Strept.faecalis 1501, inoculum size 10^6 /ml) [µg/mL] | Potency [8] [µg/mg] | MIC [9] [µg/mL] |
| --- | --- | --- | --- | --- | --- | --- | --- | --- | --- | --- | --- | --- | --- | --- |
| CCCC(=O)OC1C(C)OC(OC2C(C)OC(OC3C(CC=O)CC(C)C(O)C=CC=CCC(C)OC(=O)CC(O)C3OC)C(O)C2N(C)C)CC1(C)OC(C)=O (stereo not shown) [3"-acetyl LM-A5, 3"-acetyl leucomycin A5] | > 100 | 100 (≈ 123 µM) | > 100 | 100 | 12.5 | 6.3 (≈ 7.74 µM) | 0.8 | 0.4 (≈ 0.491 µM) | 1.6 (≈ 1.97 µM) | 1.6 (≈ 1.97 µM) | 0.8 (≈ 0.983 µM) | 1.6 | 2850 |  |
| CCCC(=O)OC1C(C)OC(OC2C(C)OC(OC3C(CC=O)CC(C)C(O)C=CC=CCC(C)OC(=O)CC(O)C3OC)C(O)C2N(C)C)CC1(C)OC(=O)CC (stereo not shown) [3"-propionyl LM-A5, 3"-propionyl leucomycin A5] |  | > 100 | > 100 |  |  | 12.5 (≈ 15.1 µM) |  | 0.4 (≈ 0.483 µM) | 0.8 (≈ 0.966 µM) | 1.6 (≈ 1.93 µM) | 0.8 (≈ 0.966 µM) |  | 2850 | 0.8 (≈ 0.966 µM) |
| CCCC(=O)OC1C(C)OC(OC2C(C)OC(OC3C(CC=O)CC(C)C(O)C=CC=CCC(C)OC(=O)CC(O)C3OC)C(O)C2N(C)C)CC1(C)OC(=O)CCC (stereo not shown) [3"butylyl LM-A5, 3"-butylyl leucomycin A5] |  | 100 (≈ 119 µM) | > 100 |  |  | 50 (≈ 59.4 µM) |  | 0.8 (≈ 0.95 µM) | 0.8 (≈ 0.95 µM) | 1.6 (≈ 1.9 µM) | 0.8 (≈ 0.95 µM) |  |  | 0.4 (≈ 0.475 µM) |
| CCCC(=O)OC1C(C)OC(OC2C(C)OC(OC3C(CC=O)CC(C)C(O)C=CC=CCC(C)OC(=O)CC(OC(C)=O)C3OC)C(O)C2N(C)C)CC1(C)OC(C)=O (stereo not shown) [3,3"-diacetyl LM-A5, 3,3"-diacetylleucomycin A5] |  | > 100 | > 100 |  |  | 50 (≈ 58.4 µM) |  | 1.6 (≈ 1.87 µM) | 1.6 (≈ 1.87 µM) | 1.6 (≈ 1.87 µM) | 1.6 (≈ 1.87 µM) |  |  | 0.8 (≈ 0.935 µM) |
| CCCC(=O)OC1(C)CC(OC2C(C)OC(OC3C(CC=O)CC(C)C(O)C=CC=CCC(C)OC(=O)CC(O)C3OC)C(O)C2N(C)C)OC(C)C1OC(C)=O (stereo not shown) [4"-acetyl-3"-butylyl LM-A5, 4"-acetyl-3"-butylyl leucomycin V] |  | > 100 | 25 (≈ 30.7 µM) |  |  | 50 (≈ 61.4 µM) |  | 6.3 (≈ 7.74 µM) | 1.6 (≈ 1.97 µM) | 1.6 (≈ 1.97 µM) | 0.8 (≈ 0.983 µM) |  |  | 0.8 (≈ 0.983 µM) |
| CCCC(=O)OC1C(C)OC(OC2C(C)OC(OC3C(CC=O)CC(C)C(OC(C)=O)C=CC=CCC(C)OC(=O)CC(O)C3OC)C(O)C2N(C)C)CC1(C)OC(C)=O (stereo not shown) [9,3"-diacetyl LM-A5, 9,3"-diacetyl leucomycin A5] |  | 100 (≈ 117 µM) | > 100 |  |  | 12.5 (≈ 14.6 µM) |  | 0.4 (≈ 0.467 µM) | 0.8 (≈ 0.935 µM) | 1.6 (≈ 1.87 µM) | 1.6 (≈ 1.87 µM) |  |  | 0.8 (≈ 0.935 µM) |
| COC1C(OC(C)=O)CC(=O)OC(C)CC=CC=CC(O)C(C)CC(CC=O)C1OC1OC(C)C(OC2CC(C)(O)C(OC(=O)CC(C)C)C(C)O2)C(N(C)C)C1O (stereo not shown) [LM-A3, Leucomycin A3, reference compound] |  | > 100 | > 100 |  |  | > 100 |  | > 100 | 3.1 (≈ 3.74 µM) | 3.1 (≈ 3.74 µM) | 3.1 (≈ 3.74 µM) |  |  | 1.6 (≈ 1.93 µM) |
| CCCC(=O)OC1C(C)OC(OC2C(C)OC(OC3C(CC=O)CC(C)C(O)C=CC=CCC(C)OC(=O)CC(O)C3OC)C(O)C2N(C)C)CC1(C)O (stereo not shown) [LM-A5, Leucomycin A5, reference compound] |  | > 100 | > 100 |  |  | > 100 |  | > 100 | 1.6 (≈ 2.07 µM) | 1.6 (≈ 2.07 µM) | 1.6 (≈ 2.07 µM) |  |  | 1.6 (≈ 2.07 µM) |

Reference: patent US4242504A, “3"-Acylated macrolide antibiotics” (Toyo Jozo Kabushiki Kaisha, priority 1978, dated 1980)
